The test system of data set [1] is old rats' thymus explants. Put plainly: Development of thymus explants taken from old rats (area index). Type of data set: cell-based. The conditions noted are these: 0.5 ng/ml; 3rd day of cultivating; rats aged 24 months. How it is done: The experiments were staged on 35 fragments of the thymus and 45 fragments of the spleen taken from rats aged 24 months. Nutritional medium for cultivation consisted of 35% Eagle's solution, 25% calf fetal serum, 35% Hanx solution, 5% chicken embryonic extract, with the addition of glucose (0.6%), insulin (0.5 U/ml), penicillin (100 U/ml), glutamin (2 mM). […]
Peptide H-Glu-Asp-Pro-OH was added into the experimental medium in concentrations of 0.5, 10 and 100 ng/ml.
Area index (AI)—the ratio of total explant area including the growth zone to the initial area of thymus or spleen fragment was used as a criterion for measuring the biological activity. AI values were expressed in percent, control AI value being taken as 100%.

The next data set concerns male guinea pigs. The conditions noted are these: guinea pig, in vivo. On the procedure:
(§1) Common toxicity of H-Glu-Asp-Pro-OH was studied according to the requirements stated in the “Manual for experimental (pre-clinical) study of new pharmacological substances” (2005): acute toxicity in case of single administration of the substance and sub-acute and chronic toxicity in case of long-term administration of the peptide.
(§2) The study of acute toxicity was performed on 60 white mongrel male mice with body weight of 18-21 g. The animals were randomly subdivided into 6 equal groups. The substance was administered to the animals once, intramuscularly, in the doses of 1 mg/kg, 2 mg/kg, 3 mg/kg, 4 mg/kg, 5 mg/kg in 0.25 ml of sterile 0.9% NaCl solution. The control animals received 0.9% NaCl solution in the same volume. The study of subacute toxicity was performed on 50 white mongrel male rats with body weight of 170-210 g. Experimental animals received the substance daily, intramuscularly for 90 days in the doses of 1 μg/kg, 0.1 mg/kg, 1 mg/kg in 0.5 ml of sterile 0.9% NaCl solution. […] Upon completion of the experiment biochemical and coagulologic indices of the blood were also evaluated. […] Traditional methods were used for the evaluation of the following indices of the animals' peripheric blood: the quantity of erythrocytes, hemoglobin, reticulocytes, thrombocytes, leukocytes, leukocyte formula, erythrocyte sedimentation rate (ESR), erythrocyte resistance. […]

The next data set relates to white mongrel male rats. Put plainly: Subacute toxicity, 90 days intramuscular. Type of data set: in vivo. Particulars: i.m. daily for 90 days, 1 μg/kg, 0.1 mg/kg, 1 mg/kg (100-1000 times the therapeutic dose). On the procedure:
as §1, §2

For data set [2], the system named is thymus epithelium cells, line VTEC2.H/S. Put plainly: Proliferation of thymus epithelium cells in ageing cultures (3H-thymidin). Type of data set: cell-based, human. On the set-up: unit not given here. How it is done:
The study was staged in vitro in the culture of thymus epithelium cells, which were represented by cells of suspension line VTEC2.H/S, obtained by transforming thymus epithelial cells of human embryo thymus with the material containing SV40 virus, and subsequent cloning of transformed cells.
Peptide H-Glu-Asp-Pro-OH was introduced into cell cultures in successive dilutions to ultimate concentrations of 2, 20 and 200 ng/ml. Proliferation of thymus epithelium cells subjected to 1, 4 and 7 passages was estimated using a radiometrical method, judging by the content of ^3H-thymidin.

The source of these data is patent publication US8057810B2, “Peptide substance revealing an immunogeroprotective effect, pharmaceutical composition on its base and the method of its application” (priority 2006, dated 2011).

Residues, ends and D or L forms follow the SMILES beside them.

Regarding `N[C@@H](CCC(=O)O)C(=O)N[C@@H](CC(=O)O)C(=O)N1CCC[C@H]1C(=O)O` [Peptide H-Glu-Asp-Pro-OH, glutamyl-aspartyl-proline] (H-Glu-Asp-Pro-OH), the “Area index (AI) in thymus explants, increase as compared to the control AI” value in data set [1] is on record as 24%. The “Changes in blood morphology, biochemical indices, ESR, erythrocyte resistance” value in the data set with male guinea pigs was “no statistically significant changes”. In the data set on white mongrel male rats, the “Subacute toxicity: side effects” value is on record as “absence of any side effects”. The “Proliferation of thymus epithelial cells (3H-thymidin content)” value in data set [2] (2 ng/ml, 1st passage) is on record as 1480 ± 89; in data set [2] (2 ng/ml, 4th passage) it was 730 ± 54; in data set [2] (2 ng/ml, 7th passage) it was 705 ± 46; in data set [2] (20 ng/ml, 1st passage) it was 1585 ± 95; in data set [2] (20 ng/ml, 4th passage), 680 ± 48; in data set [2] (20 ng/ml, 7th passage), 680 ± 41. For the same compound, the “Proliferation of thymus epithelial cells (3H-thymidin content)” value in data set [2] (200 ng/ml, 1st passage) came to 1530 ± 91; in data set [2] (200 ng/ml, 4th passage) it was 760 ± 58; in data set [2] (200 ng/ml, 7th passage), 795 ± 49.
